Test results: US6583309B1 (University of Medicine and Dentistry of New Jersey, priority 1999, dated 2003)

Target: TAR RNA
Assay: In vitro binding of resin-bound compounds to TAR RNA (OD260 of unbound RNA)
Parameters: species or system HIV
Conditions: in vitro assay; compounds of formula I on TentaGel beads incubated with TAR RNA overnight at 4° C. in TK buffer; read-out: Kd (nM), binding constants
Description: Binding of compounds of formula I and V to TAR RNA was measured by evaluating their inhibition of TAR-TAT complex formation in the presence of increasing levels of the compound to be tested. The compounds of formula I were tested in an in vitro assay; the compounds of formula V were tested in an in vivo assay.
The TAR RNA used corresponds to the minimal sequence required for TAT responsiveness in vivo. This 29-residue oligonucleotide has the sequence: 5′-[…]-3′ (SEQ ID NO.: 1). TAR RNA was prepared by in vitro transcription. A “top strand” single-stranded DNA oligomer having the sequence 5′-TAATACGACTCACTATAG-3′ (SEQ ID NO.: 2) was annealed to a “bottom strand” single-stranded DNA template having the following sequence: 3′-[…]-5′ (SEQ ID NO.: 3), thereby generating a double-stranded region corresponding to a promoter sequence recognized by T7 RNA polymerase. Transcription was carried out in transcription buffer (40 mM Tris-HCl, pH 8.1, 1 mM spermidine, 0.01% Triton®X-100, 5 mM dithiothreitol, 4 mM each of ATP, GTP, CTP, and UTP at 37° C. for 4 to 5 hours. Reactions were performed in a volume of 0.02 ml containing 8 pmole of template (top strand annealed to bottom strand) and 40 to 60 units of T7 RNA polymerase. Transcription was terminated by adding an equal volume of loading buffer (9M urea, 1 mmol EDTA, 0.1M bromophenol blue in 1XTBE buffer; TBE is 45 mmol trisborate at pH 8). Product RNA was purified by electrophoresis through a denaturing 20% polyacrylamide gel containing 8M urea. RNA was extracted from the gel, precipitated, dissolved in dithylpyrocarbonate-treated water, and stored at −20° C. until used.
In vitro assay conditions: Compounds AA-DU were synthesized on TentaGel S—NH2 (4.6 mmole). All Fmoc-amino acids were purchased from Bachem (Torrance, Calif.). 1-hydroxybenzotriazole (HOBT) and diisopropylcarbodiimide (DIPCDI) were obtained from Aldrich Chemical Co., Milwalkee, Wis. Piperidine and trifluoroacetic acid were purchased from Applied Biosystems Division, Perkin-Elmer. Compounds AA-DU were synthesized manually according to standard solid-phase peptide synthesis protocols. Coupling efficiencies of residues at each step were monitored by Kaiser test. Deprotection of trimer peptides was carried out in 10% water in trifluoroacetic acid (1 mL) for 16 hours at room temperature. After filtration of solvents, the resin was washed with water (1 mL×4), DMF (1 mL×4), dichloromethane (1 mL×4), and dried under reduced pressure. The compounds attached to the resin (10 beads) were placed in an Eppendorf tube and washed with TK buffer ([…]). The beads were suspended in TK buffer ([…]) and incubated with TAR RNA ([…]) overnight at 4° C. The suspension was centrifuged and the supernatant containing unbound RNA was transferred to a cuvette for OD260 measurements. The UV absorbance was measured by a Shimadzu UV-1601 spectrometer. Equilibrium concentrations of RNA were determined from these measurements. Given that the initial concentrations of ligand and RNA are known, and assuming simple bimolecular receptor/substrate binding, dissociation constant (KD) was calculated from straightforward equations.

Compound | Kd [nM]
NCCCC[C@H](COC(N)=O)NC(=O)CN(CCCCN)C(=O)[C@@H](N)CCCCN [Compound AU, Carbamic acid 6-amino-2-{2-[(4-amino-butyl)-(2,6-diamino-hexanoyl)-amino]-acetylamino}-hexyl ester] | 147
NCCCC[C@H](COC(N)=O)NC(=O)CN(CCCCN)C(=O)[C@H](N)CCCCN [Compound AV, Carbamic acid 6-amino-2-{2-[(4-amino-butyl)-(2,6-diamino-hexanoyl)-amino]-acetylamino}-hexyl ester] | 325
NCCCCCCCNCC(=O)N(CCCCN)CC(=O)N[C@H](CCCCN)COC(N)=O [Compound AX, Carbamic acid 6-amino-2-(2-{(4-amino-butyl)-[2-(7-amino-heptylamino)-acetyl]-amino}-acetylamino)-hexyl ester] | 165
NCCCCNCC(=O)N(CCCCN)CC(=O)N[C@H](CCCCN)COC(N)=O [Compound AY, Carbamic acid 6-amino-2-(2-{(4-amino-butyl)-[2-(4-amino-butylamino)-acetyl]-amino}-acetylamino)-hexyl ester] | 403
N=C(N)NCCC[C@H](N)COC(=O)N(CCCCN)CC(=O)N[C@H](CCCCN)COC(N)=O [Compound AZ, Carbamic acid 6-amino-2-{2-[(4-amino-butyl)-(2-amino-5-guanidino-pentyloxycarbonyl)-amino]-acetylamino}-hexyl ester] | 147
NCCCC[C@H](COC(N)=O)NC(=O)CN(CCCCN)C(=O)OC[C@H](N)CCC(N)=O [Compound BA, Carbamic acid 6-amino-2-{2-[(4-amino-butyl)-(2-amino-4-carbamoyl-butoxycarbonyl)-amino]-acetylamino}-hexyl ester] | 460
NCCCCCN(CC(=O)N[C@H](CCCCN)COC(N)=O)C(=O)OC[C@@H](N)CCCCN [Compound BB, Carbamic acid 6-amino-2-{2-[(5-amino-pentyl)-(2,6-diamino-hexyloxycarbonyl)-amino]-acetylamino}-hexyl ester] | 256
NCCCCCN(CC(=O)N[C@H](CCCCN)COC(N)=O)C(=O)[C@@H](N)CCCCN [Compound BD, Carbamic acid 6-amino-2-{2-[(5-amino-pentyl)-(2,6-diamino-hexanoyl)-amino]-acetylamino}-hexyl ester] | 235
NCCCCCN(CC(=O)N[C@H](CCCCN)COC(N)=O)C(=O)[C@H](N)CCCCN [Compound BE, Carbamic acid 6-amino-2-{2-[(5-amino-pentyl)-(2,6-diamino-hexanoyl)-amino]-acetylamino}-hexyl ester] | 678
NCCCCCNCC(=O)N(CCCCCN)CC(=O)N[C@H](CCCCN)COC(N)=O [Compound BF, Carbamic acid 6-amino-2-(2-{(5-amino-pentyl)-[2-(5-amino-pentylamino)-acetyl]-amino}-acetylamino)-hexyl ester] | 147
NCCCCCCCNCC(=O)N(CCCCCN)CC(=O)N[C@H](CCCCN)COC(N)=O [Compound BG, Carbamic acid 6-amino-2-{2-[[2-(7-amino-heptylamino)-acetyl]-(5-amino-pentyl)-amino]-acetylamino}-hexyl ester] | 431
NCCCCCN(CC(=O)N[C@H](CCCCN)COC(N)=O)C(=O)CNCCCCN [Compound BH, Carbamic acid 6-amino-2-{2-[[2-(4-amino-butylamino)-acetyl]-(5-amino-pentyl)-amino]-acetylamino}-hexyl ester] | 2530
N=C(N)NCCC[C@H](N)COC(=O)N(CCCCCN)CC(=O)N[C@H](CCCCN)COC(N)=O [Compound BI, Carbamic acid 6-amino-2-{2-[(2-amino-5guanidino-pentyloxycarbonyl)-(5-amino-pentyl)-amino]-acetylamino}-hexyl ester] | 202
NCCCCCN(CC(=O)N[C@H](CCCCN)COC(N)=O)C(=O)OC[C@H](N)CCC(N)=O [Compound BJ, Carbamic acid 6-amino-2-{2-[(2-amino-4-carbamoyl-butoxycarbonyl)-(5-amino-pentyl)-amino]-acetylamino}-hexyl ester] | 202
NCCCCCCCN(CC(=O)N[C@H](CCCCN)COC(N)=O)C(=O)OC[C@@H](N)CCCCN [Compound BK, Carbamic acid 6-amino-2-{2-[(7-amino-heptyl)-(2,6-diamino-hexyloxycarbonyl)-amino]-acetylamino}-hexyl ester] | 930
NCCCCCCCN(CC(=O)N[C@H](CCCCN)COC(N)=O)C(=O)OC[C@H](N)CCCCN [Compound BL, Carbamic acid 6-amino-2-{2-[(7-amino-heptyl)-(2,6-diamino-hexyloxycarbonyl)-amino]-acetylamino}-hexyl ester] | 718
NCCCCCCCN(CC(=O)N[C@H](CCCCN)COC(N)=O)C(=O)[C@@H](N)CCCCN [Compound BM, Carbamic acid 6-amino-2-{2-[(7-amino-heptyl)-(2,6-diamino-hexanoyl)-amino]-acetylamino}-hexyl ester] | 403
NCCCCCCCN(CC(=O)N[C@H](CCCCN)COC(N)=O)C(=O)[C@H](N)CCCCN [Compound BN, Carbamic acid 6-amino-2-{2-[(7-amino-heptyl)-(2,6-diamino-hexanoyl)-amino]-acetylamino}-hexyl ester] | 3150
NCCCCCCCN(CC(=O)N[C@H](CCCCN)COC(N)=O)C(=O)CNCCCCCN [Compound BO, Carbamic acid 6-amino-2-(2-{(7-amino-heptyl)-[2-(5-amino-pentylamino)-acetyl]-amino}-acetylamino)-hexyl ester] | 183
NCCCCCCCNCC(=O)N(CCCCCCCN)CC(=O)N[C@H](CCCCN)COC(N)=O [Compound BP, Carbamic acid 6-amino-2-(2-{(7-amino-heptyl)-[2-(7-amino-heptylamino)-acetyl]-amino}-acetylamino)-hexyl ester] | 2190
NCCCCCCCN(CC(=O)N[C@H](CCCCN)COC(N)=O)C(=O)CNCCCCN [Compound BQ, Carbamic acid 6-amino-2-{2-[[2-(4-amino-butylamino)-acetyl]-(7-amino-heptyl)-amino]-acetylamino}-hexyl ester] | 235
N=C(N)NCCC[C@H](N)COC(=O)N(CCCCCCCN)CC(=O)N[C@H](CCCCN)COC(N)=O [Compound BR, Carbamic acid 6-amino-2-{2-[(2-amino-5-guanidino-pentyloxycarbonyl)-(7-amino-heptyl)-amino]-acetylamino}-hexyl ester] | 5590
NCCCCCCCN(CC(=O)N[C@H](CCCCN)COC(N)=O)C(=O)OC[C@H](N)CCC(N)=O [Compound BS, Carbamic acid 6-amino-2-{2-[(2-amino-4-carbamoyl-butoxycarbonyl)-(7-amino-heptyl)-amino]-acetylamino}-hexyl ester] | 639
NCCCC[C@@H](N)COC(=O)N[C@@H](CCCCN)C(=O)N[C@H](CCCCN)COC(N)=O [Compound BU, Carbamic acid 6-amino-2-[6-amino-2-(2,6-diamino-hexyloxycarbonylamino)-hexanoylamino]-hexyl ester] | 1420
NCCCC[C@H](COC(N)=O)NC(=O)[C@H](CCCCN)NC(=O)[C@H](N)CCCCN [Compound BW, Carbamic acid 6-amino-2-[6-amino-2-(2,6-diamino-hexanoylamino)-hexanoylamino]-hexyl ester] | 678
NCCCCCNCC(=O)N[C@@H](CCCCN)C(=O)N[C@H](CCCCN)COC(N)=O [Compound BX, Carbamic acid 6-amino-2-{6-amino-2-[2-(5-amino-pentylamino)-acetylamino]-hexanoylamino}-hexyl ester] | 202
NCCCCCCCNCC(=O)N[C@@H](CCCCN)C(=O)N[C@H](CCCCN)COC(N)=O [Compound BY, Carbamic acid 6-amino-2-{6-amino-2-[2-(7-amino-heptylamino)-acetylamino]-hexanoylamino}-hexyl ester] | 183
NCCCCNCC(=O)N[C@@H](CCCCN)C(=O)N[C@H](CCCCN)COC(N)=O [Compound BZ, Carbamic acid 6-amino-2-{6-amino-2-[2-(4-amino-butylamino)-acetylamino]-hexanoylamino}-hexyl ester] | 130
